Source: ChEMBL document CHEMBL5316268 (J Med Chem, 2023)
Calls of active or inactive are those of the source. No cut-off for these calls is given here.

Columns and labels:
[1] = Tmax in CD rat at 50 mg/kg, po measured for 24 hrs by LC-MS/MS analysis; format: ADME, organism-based; details: in vivo
[2] = Cmax in CD rat at 200 mg/kg, po measured for 24 hrs by LC-MS/MS analysis; format: ADME, organism-based; set-up: time 24 hrs, dose 200 mg/kg, route po; details: in vivo
[3] = Plasma protein binding in monkey at 10 uM assessed as bound fraction; format: ADME, cell-free, Macaca mulatta; details: rhesus monkey, read-out: PPB (converted)
[4] = Plasma protein binding in dog at 10 uM assessed as bound fraction; format: ADME, cell-free, Canis lupus familiaris; details: read-out: PPB (converted)
[5] = Tmax in CD rat at 200 mg/kg, po measured for 24 hrs by LC-MS/MS analysis; format: ADME, organism-based; details: in vivo
5'-nucleotidase = target: T1, 5'-nucleotidase (Mus musculus, UniProt Q61503); test: Inhibition of C-terminal 6His-tagged recombinant mouse CD73 (29 to 549 residues) expressed in CHO cells incubated for 1 hr by malachite green assay; format: cell-based
T1 sequence (Q61503 whole entry): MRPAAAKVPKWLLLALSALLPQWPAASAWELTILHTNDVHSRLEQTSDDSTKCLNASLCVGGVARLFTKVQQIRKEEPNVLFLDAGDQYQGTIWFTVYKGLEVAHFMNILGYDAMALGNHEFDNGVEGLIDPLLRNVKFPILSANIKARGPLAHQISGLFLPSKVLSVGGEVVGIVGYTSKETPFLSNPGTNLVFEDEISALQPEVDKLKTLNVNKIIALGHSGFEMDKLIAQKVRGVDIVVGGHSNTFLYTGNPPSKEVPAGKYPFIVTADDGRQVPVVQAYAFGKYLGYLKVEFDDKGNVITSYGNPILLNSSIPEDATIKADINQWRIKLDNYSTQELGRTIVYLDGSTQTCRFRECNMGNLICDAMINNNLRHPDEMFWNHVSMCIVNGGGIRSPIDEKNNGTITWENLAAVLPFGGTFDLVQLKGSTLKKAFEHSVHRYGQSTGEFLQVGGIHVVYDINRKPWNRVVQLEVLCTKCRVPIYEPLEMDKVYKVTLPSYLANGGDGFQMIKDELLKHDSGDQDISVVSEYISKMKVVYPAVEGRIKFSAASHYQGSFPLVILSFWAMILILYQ

[6] = Drug concentration in tumor of mouse implanted with mouse EG7 cells at 10 to 50 mg/kg, po bid administered for 20 days and measured after 16 hrs post-last dose by LC/MS analysis; format: ADME, organism-based, Neoplasm; details: dose 10-50 mg/kg, time 20 day, read-out: Ct
EG7 [7] = test: Antitumor activity against mouse EG7 cells implanted in C57BL/6 mouse assessed as reduction in tumor volume at 50 mg/kg, po bid administered for 19 days in presence of doxorubicin; format: functional, organism-based; details: time 19.0 day
CD8-positive T cell [8] = test: Reversal of AMP-mediated suppression of human CD8-positive T cells function assessed as increase in IFN-gamma level at 0.01 to 1000 nM measured after 4 days by ELISA; format: functional, cell-based; details: dose 0.01-1000 nM, time 4.0 day
EG7 [9] = test: Antitumor activity against mouse EG7 cells implanted in C57BL/6 mouse assessed as activation of tumor-directed immune response by measuring increase in tumor-infiltrating CD8 positive cells at 50 mg/kg, po bid measured after 14 days by flow cytometry; format: functional, organism-based; details: time 14.0 day
Cytochrome P450 3A4 = Cytochrome P450 3A4 (Homo sapiens, UniProt P08684); test: Inhibition of human CYP3A4 at 10 uM; format: ADME
Chain of Cytochrome P450 3A4 (P08684 whole entry): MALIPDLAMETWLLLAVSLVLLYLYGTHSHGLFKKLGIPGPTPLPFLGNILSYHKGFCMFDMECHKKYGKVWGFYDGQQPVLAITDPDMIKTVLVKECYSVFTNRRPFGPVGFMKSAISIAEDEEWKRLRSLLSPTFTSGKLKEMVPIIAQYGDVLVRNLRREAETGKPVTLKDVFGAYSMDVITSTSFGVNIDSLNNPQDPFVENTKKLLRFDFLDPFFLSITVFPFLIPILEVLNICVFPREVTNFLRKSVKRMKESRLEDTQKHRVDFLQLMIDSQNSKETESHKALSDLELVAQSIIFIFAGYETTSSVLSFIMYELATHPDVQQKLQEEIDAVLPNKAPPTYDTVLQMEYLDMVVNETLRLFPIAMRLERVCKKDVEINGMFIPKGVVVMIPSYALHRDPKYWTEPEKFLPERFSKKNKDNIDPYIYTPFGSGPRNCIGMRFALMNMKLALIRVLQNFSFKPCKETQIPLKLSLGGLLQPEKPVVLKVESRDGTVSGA

Cytochrome P450 2C8 = target: T2, Cytochrome P450 2C8 (Homo sapiens, UniProt P10632); test: Inhibition of human CYP2C8 at 10 uM; format: ADME
T2 sequence (P10632 whole entry): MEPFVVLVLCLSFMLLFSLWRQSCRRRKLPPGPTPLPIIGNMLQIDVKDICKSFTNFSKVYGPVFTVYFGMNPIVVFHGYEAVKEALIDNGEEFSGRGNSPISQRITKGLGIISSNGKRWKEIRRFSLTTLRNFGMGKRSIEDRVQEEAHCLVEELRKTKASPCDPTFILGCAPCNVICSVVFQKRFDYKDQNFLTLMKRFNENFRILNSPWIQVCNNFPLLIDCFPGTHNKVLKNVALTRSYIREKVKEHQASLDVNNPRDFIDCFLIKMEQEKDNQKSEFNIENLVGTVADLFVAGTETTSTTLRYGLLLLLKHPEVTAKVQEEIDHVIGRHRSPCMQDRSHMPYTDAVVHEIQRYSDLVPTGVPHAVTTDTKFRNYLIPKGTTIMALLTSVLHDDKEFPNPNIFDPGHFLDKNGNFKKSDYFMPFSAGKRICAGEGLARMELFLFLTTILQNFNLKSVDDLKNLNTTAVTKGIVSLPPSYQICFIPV

[10] = AUC (0 to 24 hrs) in CD rat at 500 mg/kg, po measured for 24 hrs by LC-MS/MS analysis; format: ADME, organism-based; set-up: time 24 hrs, dose 500 mg/kg, route po; details: in vivo
EG7 [11] = test: Antiproliferative activity against mouse EG7 cells at 100 uM incubated for 3 days by Cell Titer-Glo assay; format: functional, cell-based; details: time 3.0 day
A-375 = test: Antiproliferative activity against human A-375 cells at 100 uM incubated for 3 days by Cell Titer-Glo assay; format: functional, cell-based; details: time 3.0 day
EG7 [12] = test: Antitumor activity against mouse EG7 cells implanted in C57BL/6 mouse assessed as reduction in tumor volume at 100 mg/kg, po bid administered for 23 days in presence of oxaliplatin; format: functional, organism-based; details: time 23.0 day
Cytochrome P450 1A2 = target: T3, Cytochrome P450 1A2 (Homo sapiens, UniProt P05177); test: Inhibition of human CYP1A2 at 10 uM; format: ADME
T3 sequence (P05177 whole entry): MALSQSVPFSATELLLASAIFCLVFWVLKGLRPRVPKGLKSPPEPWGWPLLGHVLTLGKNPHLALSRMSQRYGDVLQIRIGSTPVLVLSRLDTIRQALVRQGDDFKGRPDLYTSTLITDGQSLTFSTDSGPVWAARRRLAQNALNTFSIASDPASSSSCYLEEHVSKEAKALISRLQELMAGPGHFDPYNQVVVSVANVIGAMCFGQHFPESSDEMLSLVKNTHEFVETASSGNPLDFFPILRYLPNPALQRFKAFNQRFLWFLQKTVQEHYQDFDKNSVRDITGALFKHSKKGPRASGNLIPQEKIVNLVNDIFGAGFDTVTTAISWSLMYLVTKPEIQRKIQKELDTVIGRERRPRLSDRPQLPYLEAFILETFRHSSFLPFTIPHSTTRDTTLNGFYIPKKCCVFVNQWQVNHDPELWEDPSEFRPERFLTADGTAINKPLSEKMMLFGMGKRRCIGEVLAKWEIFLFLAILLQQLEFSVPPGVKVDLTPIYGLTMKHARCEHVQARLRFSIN

[13] = Plasma protein binding in mouse at 10 uM assessed as bound fraction; format: ADME, cell-free; details: read-out: PPB (converted)
CD8-positive T cell [14] = test: Reversal of AMP-mediated suppression of human CD8-positive T cell proliferation at 0.01 to 1000 nM measured after 4 days by flow cytometry; format: functional, cell-based; details: dose 0.01-1000 nM, time 4.0 day
[15] = Oral bioavailability in CD rat at 50 mg/kg measured for 24 hrs by LC-MS/MS analysis; format: ADME, organism-based; details: in vivo, po, 50 mg/kg, 24 h
CD8-positive T cell [16] = test: Reversal of AMP-mediated suppression of human CD8-positive T cells function assessed as increase in CD25 expression at 0.01 to 1000 nM measured after 4 days by flow cytometry; format: functional, cell-based; details: dose 0.01-1000 nM, time 4.0 day

C#C[C@@]1(O)[C@@H](COC(Cc2ccc(N3CCCNC3=O)cc2)(C(=O)O)C(=O)O)O[C@@H](n2cnc3c(N)nc(Cl)nc32)[C@@H]1O
Tmax [1]: 48 min
Cmax [2]: 1800 nM
fraction unbound at 10 µM [3]: 0.4
fraction unbound at 10 µM [4]: 0.58
Tmax [5]: 48 min
IC50 (5'-nucleotidase): 1.3 nM
concentration at 480 h [6]: > 3 nM
Activity (EG7 [7]): Active
Activity (CD8-positive T cell [8]): Active
Activity (EG7 [9]): Active
inhibition (INH) (Cytochrome P450 3A4): Not Active
inhibition (INH) (Cytochrome P450 2C8): Not Active
AUC(0-t) at 24 h [10]: 18500 ng·h/mL
Activity (EG7 [11]): inactive
Activity (A-375): inactive
Activity (EG7 [12]): Active
inhibition (INH) (Cytochrome P450 1A2): Not Active
fraction unbound at 10 µM [13]: 0.37
Activity (CD8-positive T cell [14]): Active
F [15]: 2.8%
Activity (CD8-positive T cell [16]): Active
